One assay concerns the target T1, RORγ-LBD (RORγt) (Homo sapiens, UniProt P51449).
T1 construct: the 6-His-(GST) RORγ-LBD was used which expressed and purified from baculovirus infected Sf-21 insect cells; made in house; host or cells: baculovirus-infected Sf-21 insect cells
T1 sequence (P51449 269-508 limits assumed): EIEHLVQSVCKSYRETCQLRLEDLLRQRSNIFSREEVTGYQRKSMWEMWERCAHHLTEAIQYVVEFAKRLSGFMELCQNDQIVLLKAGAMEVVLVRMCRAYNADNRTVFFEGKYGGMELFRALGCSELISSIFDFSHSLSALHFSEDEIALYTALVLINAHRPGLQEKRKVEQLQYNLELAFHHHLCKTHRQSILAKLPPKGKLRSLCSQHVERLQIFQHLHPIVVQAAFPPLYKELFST
Nature of the assay: TR-FRET RORγt Binding Assay. The following applies: 6-His(GST)RORγ-LBD, SRC1_2 peptide, read-out: RORγt Binding. As to the method:
TR-FRET RORγt Binding Assay: RORγ-LBD contains a 6-His and GST tag peptide from SRC1-2 an aminoterminal biotinyl-[…] was employed and the 6-His-(GST) RORγ-LBD was used which expressed and purified from baculovirus infected Sf-21 insect cells from Invitrogen and purified using glutathione sepharose. […] The peptide binding due to dose-curves of compounds was added the 0.1% DMSO. Fluorescence at wavelength 340 nm was read in each well of […] using an Envision fluorescence reader in Time Resolved mode after overnight incubation at 4° C.
For orientation: TR-FRET usually uses a lanthanide donor and a delayed reading to cut background.

The target in another assay is T2, RORγt (Homo sapiens, UniProt P51449).
T2 construct: host or cells: IL-17A Prom/LUCPorter HEK 293 cell line (IMGENEX, IML-301)
T2 sequence (P51449 1-497 isoform P51449-2): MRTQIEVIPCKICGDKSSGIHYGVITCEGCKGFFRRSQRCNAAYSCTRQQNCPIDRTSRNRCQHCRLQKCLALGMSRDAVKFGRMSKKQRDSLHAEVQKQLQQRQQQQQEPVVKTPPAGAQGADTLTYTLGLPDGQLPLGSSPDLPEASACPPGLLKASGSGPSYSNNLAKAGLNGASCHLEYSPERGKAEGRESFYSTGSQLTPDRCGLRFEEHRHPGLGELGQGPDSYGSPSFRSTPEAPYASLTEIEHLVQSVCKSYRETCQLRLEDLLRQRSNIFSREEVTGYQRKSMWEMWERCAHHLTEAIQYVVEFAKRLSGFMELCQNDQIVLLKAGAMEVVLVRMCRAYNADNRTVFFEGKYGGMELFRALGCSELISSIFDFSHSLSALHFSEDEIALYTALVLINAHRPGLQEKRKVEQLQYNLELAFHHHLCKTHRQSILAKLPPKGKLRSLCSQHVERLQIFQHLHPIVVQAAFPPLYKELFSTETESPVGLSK
Kind of assay: RORγt-activated IL-17A Prom/LUCPorter HEK 293 cells luciferase reporter assay. In kind it is cell-based. The settings on record: IL-17A Prom/LUCPorter HEK 293 cells transfected with RORγt, 16 h; read-out: RORγt Cell Specific. As to the method: Antagonistic (or inverse agonistic) effects of the test compounds on the RORγt-activated IL-17A Prom/LUCPorter™ HEK 293 cells were analyzed and IC50 of each compound was evaluated. […] Luciferase activity was analyzed using the luciferase reporter assay reagent (IMGENEX, LS100). The data were analyzed using Excel and Prism software. Percent activity was defined as 100×(1−(Well−Control A)/(Control B−Control A)), where Control A was the wells containing cells transfected with RORγt and Control B was the wells containing non-transfected cells. Both Controls A and B were treated with vehicle alone.
(In general: A reporter such as luciferase makes a cellular process visible.)

The test system of assay [1] is IL-17 release from CD4+ T cells. Nature of the assay: Cytokine IL-17 estimation by HTRF, IL-17 release from CD4+ T cells. In kind it is cell-based. The settings on record: Homo sapiens, IL-17 release from CD4+ T cells, HTRF, read-out: IL-17 Inhibition. The source says:
The assay was designed to assess the potency of test compounds on IL-17 cytokine release from CD4+ T cells. In order to aid in the identification of potent inhibitors, the IC50's determined for the test compounds IL-17 release from CD4+ T cells through the generation of 10 point Dose Response Curves (DRC). Assay methods used to quantify IL-17 secretion is HTRF (Homogenous Time Resolved Fluorescence). IL-17 secreted is detected by anti-IL-17 MAb labeled with XL665, the second MAb labeled with Cryptate, which binds to specific epitopes of human IL-17. Upon close proximity of both acceptor and donor energy transfer (FRET) occurs. This technique has been further enhanced by using long-lived labels combined with the detection on a time-resolved fluorescence basis, allowing […] of prompt fluorescence interferences.
The assay was performed according to manufacturer's instruction. All the reagents were reconstituted according to instructions provided. The reagents were dispensed into a half area 96-well plate in the following order: […] or sample, IL-17 MAbXL665 and 5 μL IL-17 Cryptate. For the negative control, the standard or sample is replaced by […]. The plate is covered with a plate sealer and incubated at rt for 2 h. Following incubation, the plate sealer is removed and the plate is read using HTRF protocol on Envision Microplate reader. All of the data analysis was carried out using Microsoft Excel (2010) and IC50 was determined using GraphPad Prism 4 software. % Inhibition of the test compounds were determined utilizing the following formula: % Inhibition=100−(100*(Average Test Compound Counts−Average Negative Control Counts)/(Average Positive Control Counts−Average Negative Control Counts)).
We have established robust in vitro cell-based HTRF assay for the activation and stimulation of CD4+ T lymphocytes to T helper 17 (Th17) cell differentiation and IL-17 production.

In the case of `COc1cc2c(cc1N1CCC(C)CC1)CC(Cc1ncccc1C(F)(F)F)C2=O` (stereo not drawn) [compound 142], the IC50 was greater than 1000 nM on RORγ-LBD (RORγt), greater than 1000 nM on RORγt and less than 500 nM in assay [1].

Take `COc1cc2c(cc1N1CCC(C)CC1)CC(Cc1cccc(C(F)(F)F)c1)C2=O` (stereo not drawn) [compound 154]: the IC50 at RORγ-LBD (RORγt) is greater than 1000 nM; at RORγt, greater than 1000 nM; in assay [1], less than 500 nM.

Consider `COc1cc2c(cc1N1CCOCC1)CC(Cc1c(F)ccc(C(O)(C(F)(F)F)C(F)(F)F)c1F)C2=O` (stereo not drawn) [compound 232, 2-(2,6-difluoro-3-(1,1,1,3,3,3-hexafluoro-2-hydroxypropan-2-yl)benzyl)-6-methoxy-5-morpholino-2,3-dihydro-1H-inden-1-one], for which the IC50 (on RORγ-LBD (RORγt); on RORγt; in assay [1]) was less than 500 nM in each case.

As for `COc1cc2c(cc1N1CCOCC1)CC(Cc1ccc(C(F)(F)F)nc1)C2=O` (stereo not drawn) [compound 71, 6-methoxy-5-morpholino-2-((6-(trifluoromethyl)pyridin-3-yl)methyl)-2,3-dihydro-1H-inden-1-one], the IC50 at RORγ-LBD (RORγt) is greater than 10000 nM; on RORγt, greater than 10000 nM; in assay [1] it was greater than 1000 nM.

On to `COc1cc2c(cc1O)C(=O)C(Cc1ncccc1C(F)(F)F)C2` (stereo not drawn) [compound 190], for which the figures for the IC50 (at RORγ-LBD (RORγt); at RORγt; in assay [1]) were less than 500 nM, greater than 1000 nM and less than 500 nM, respectively.

Regarding `COc1cc2c(cc1N1CCN(C)CC1)CC(Cc1cccc(C(F)(F)F)c1Cl)C2=O` (stereo not drawn) [compound 110, 2-(2-chloro-3-(trifluoromethyl)benzyl)-6-methoxy-5-(4-methylpiperazin-1-yl)-2,3-dihydro-1H-inden-1-one], the IC50 is less than 500 nM on RORγ-LBD (RORγt), less than 500 nM on RORγt and greater than 1000 nM in assay [1].

Turning to `COc1ccc2c(c1)CC(Cc1ccc(SC(F)(F)F)cc1)C2=O` (stereo not drawn) [compound 182], the IC50 is greater than 1000 nM on RORγ-LBD (RORγt), greater than 1000 nM on RORγt and less than 500 nM in assay [1].

With `COc1cc2c(cc1Cl)CC(Cc1ncccc1C(F)(F)F)C2=O` (stereo not drawn) [compound 174], the IC50 is greater than 1000 nM on RORγ-LBD (RORγt), greater than 1000 nM on RORγt and less than 500 nM in assay [1].

As to `COc1cc2c(cc1N1CCC(C)CC1)CC(Cc1ccc(SC(F)(F)F)cc1)C2=O` (stereo not drawn) [compound 140], the IC50 on RORγ-LBD (RORγt) is less than 500 nM; on RORγt, greater than 1000 nM; in assay [1], greater than 10000 nM.

As to `COc1ccc2c(c1OC)CC(Cc1ccc(SC(F)(F)F)cc1)C2=O` (stereo not drawn) [compound 167], the IC50 was greater than 1000 nM at RORγ-LBD (RORγt), greater than 1000 nM at RORγt and less than 500 nM in assay [1].

As to `COc1ccc2c(c1Cl)CC(Cc1ccc(SC(F)(F)F)cc1)C2=O` (stereo not drawn) [compound 177], the IC50 is less than 500 nM at RORγ-LBD (RORγt), greater than 1000 nM on RORγt and less than 500 nM in assay [1].

With `COc1cc2c(c(N3CCC(C)CC3)c1OC)CC(Cc1ccc(SC(F)(F)F)cc1)C2=O` (stereo not drawn) [compound 131, 5,6-dimethoxy-4-(4-methylpiperidin-1-yl)-2-(4-((trifluoromethyl)thio)benzyl)-2,3-dihydro-1H-inden-1-one], the IC50 (at RORγ-LBD (RORγt); on RORγt; in assay [1]) was greater than 1000 nM each time.

With `COc1cc2c(cc1N1CCN(C)CC1)CC(Cc1cc(OC(F)(F)F)cc(C(O)(C(F)(F)F)C(F)(F)F)c1)C2=O` (stereo not drawn) [compound 236, 2-(3-(1,1,1,3,3,3-hexafluoro-2-hydroxypropan-2-yl)-5-(trifluoromethoxy)benzyl)-6-methoxy-5-(4-methylpiperazin-1-yl)-2,3-dihydro-1H-inden-1-one], the IC50 on RORγ-LBD (RORγt) is greater than 1000 nM; at RORγt, greater than 1000 nM; in assay [1] it was less than 500 nM.

In the case of `CCS(=O)(=O)Oc1ccc2c(c1)CC(Cc1ccc(SC(F)(F)F)cc1)C2=O` (stereo not drawn) [compound 194], the IC50 (at RORγ-LBD (RORγt); on RORγt; in assay [1]) was less than 500 nM each time.

Take `COc1ccc2c(c1Cl)CC(Cc1ncccc1C(F)(F)F)C2=O` (stereo not drawn) [compound 179]: the IC50 at RORγ-LBD (RORγt) was less than 500 nM; at RORγt, greater than 1000 nM; in assay [1] it was less than 500 nM.

Take `COc1cc2c(cc1N1CCOCC1)CC(Cc1ccc(Cl)cc1C(F)(F)F)C2=O` (stereo not drawn) [compound 56, 2-(4-chloro-2-(trifluoromethyl)benzyl)-6-methoxy-5-morpholino-2,3-dihydro-1H-inden-1-one]: the IC50 (at RORγ-LBD (RORγt); on RORγt; in assay [1]) was greater than 1000 nM each time.

`COc1cc2c(cc1N1CCOCC1)CC(Cc1ccc(SC(F)(F)F)cc1)C2=O` (stereo not drawn) [compound 74, 6-methoxy-5-morpholino-2-(4-((trifluoromethyl)thio)benzyl)-2,3-dihydro-1H-inden-1-one]: the IC50 at RORγ-LBD (RORγt) is greater than 10000 nM; on RORγt, greater than 10000 nM; in assay [1] it was greater than 1000 nM.

As for `COc1cc2c(cc1N1CCN(C)CC1)CC(Cc1ncccc1C(F)(F)F)C2=O` (stereo not drawn) [compound 113], the IC50 was less than 500 nM at RORγ-LBD (RORγt), less than 500 nM on RORγt and greater than 1000 nM in assay [1].

Turning to `COc1cc2c(cc1N1CCOCC1)CC(Cc1ccc(C(F)(F)F)cc1)C2=O` (stereo not drawn) [compound 86], the IC50 (on RORγ-LBD (RORγt); on RORγt; in assay [1]) was greater than 1000 nM throughout.

`CCS(=O)(=O)Oc1cc2c(cc1OC)CC(Cc1ccc(SC(F)(F)F)cc1)C2=O` (stereo not drawn) [compound 188]: the IC50 on RORγ-LBD (RORγt) is less than 500 nM; on RORγt it was greater than 1000 nM; in assay [1], less than 500 nM.

As for `COc1cc2c(cc1N1CCN(C)CC1)CC(Cc1ccc(SC(F)(F)F)cc1)C2=O` (stereo not drawn) [compound 106], the IC50 at RORγ-LBD (RORγt) was less than 500 nM; on RORγt, greater than 1000 nM; in assay [1], greater than 1000 nM.

As for `COc1cc2c(cc1N1CCOCC1)C/C(=C\c1cc(Br)cc(OC(F)(F)F)c1)C2=O` [compound 30, (E)-2-(3-bromo-5-(trifluoromethoxy)benzylidene)-6-methoxy-5-morpholino-2,3-dihydro-1H-inden-1-one], the IC50 at RORγ-LBD (RORγt) is greater than 10000 nM; at RORγt it was greater than 10000 nM; in assay [1] it was greater than 1000 nM.

For the molecule `COc1cc2c(cc1N1CCOCC1)CC(Cc1sc(N3CCOCC3)nc1Cl)C2=O` (stereo not drawn) [compound 47, 2-((4-chloro-2-morpholinothiazol-5-yl)methyl)-6-methoxy-5-morpholino-2,3-dihydro-1H-inden-1-one], the IC50 (on RORγ-LBD (RORγt); at RORγt; in assay [1]) was greater than 1000 nM each time.

As to `COc1cc2c(cc1N1CCOCC1)CC(Cc1cc(C(F)(F)F)ccc1Cl)C2=O` (stereo not drawn) [compound 158], the IC50 on RORγ-LBD (RORγt) is less than 500 nM; on RORγt it was greater than 1000 nM; in assay [1] it was less than 500 nM.
